# Biological target: T1, PIP4K2C (Homo sapiens, UniProt Q8TBX8)
# T1 sequence (Q8TBX8 1-421): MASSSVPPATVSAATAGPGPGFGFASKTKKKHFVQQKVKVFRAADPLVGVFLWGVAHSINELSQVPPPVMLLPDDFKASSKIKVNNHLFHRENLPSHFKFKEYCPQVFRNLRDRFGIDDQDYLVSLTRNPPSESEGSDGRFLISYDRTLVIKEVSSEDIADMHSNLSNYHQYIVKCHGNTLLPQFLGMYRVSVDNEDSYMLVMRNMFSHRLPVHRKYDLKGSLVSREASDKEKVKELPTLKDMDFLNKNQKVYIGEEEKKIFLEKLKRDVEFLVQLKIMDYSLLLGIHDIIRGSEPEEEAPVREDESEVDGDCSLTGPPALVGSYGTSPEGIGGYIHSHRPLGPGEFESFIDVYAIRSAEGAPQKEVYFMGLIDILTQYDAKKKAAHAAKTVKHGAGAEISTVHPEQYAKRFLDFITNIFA
# Experiment: HiBiT PIP4K2C degradation assay in MOLT-4 cells (endogenous PIP4K2C C-terminally tagged with HiBiT)
# Assay type: cell-based
# Set-up: untagged in primary human PBMCs and monocyte-derived dendritic cells
# Settings: 6 hours of incubation time, rather than 24 hours; MOLT-4, top concentration 10 micromolar; read-out: HiBIT-degradation MOLT4 PIP4k2C DC50 (6 hours, marked *)
# Outline: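 MOLT-4 knock-in line, HiBiT on PIP4K2C C-terminus; 22,500 cells/well; 10-pt 3-fold titration from 10 micromolar, n=2; 24 h or 6 h, 37 C, 5% CO2; Nano-Glo HiBiT lytic luminescence; DC50 via Hill equation.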
row,DC50 [nM],Structure (SMILES)
1,< 500,"O=C1CCC(Nc2ccc(N3CCN(C[C@H]4CC[C@H](CNC(=O)[C@H]5CC[C@H](Nc6ncc(F)c(-c7cccc(-n8ccccc8=O)c7)n6)CC5)CC4)CC3)c(F)c2)C(=O)N1 (stereo partly drawn) [Compound 416, trans-N-((trans-4-((4-(4-((2,6-dioxopiperidin-3-yl)amino)-2-fluorophenyl)piperazin-1-yl)methyl)cyclohexyl)methyl)-4-((5-fluoro-4-(3-(2-oxopyridin-1(2H)-yl)phenyl)pyrimidin-2-yl)amino)cyclohexane-1-carboxamide]"
2,> 5000,"O=C1CCC(Nc2ccc(C3CCN([C@H]4CC[C@H](C(=O)N[C@H]5CC[C@H](Nc6ncc(F)c(-c7cccc(N8CCOCC8=O)n7)n6)CC5)CC4)CC3)c(F)c2)C(=O)N1 (stereo partly drawn) [Compound 538, trans-(1r,4R)-4-(4-(4-((2,6-dioxopiperidin-3-yl)amino)-2-fluorophenyl)piperidin-1-yl)-N-((1r,4R)-4-((5-fluoro-4-(6-(3-oxomorpholino)pyridin-2-yl)pyrimidin-2-yl)amino)cyclohexyl)cyclohexane-1-carboxamide]"
3,> 5000,"O=C1CCC(Nc2ccc(C3CCN(C[C@H]4CC[C@H](C(=O)N5CCC(Nc6ncc(F)c(-c7cccc(N8CCOCC8=O)c7)n6)CC5)CC4)CC3)c(F)c2)C(=O)N1 (stereo partly drawn) [Compound 683, 3-((3-fluoro-4-(1-(((trans)-4-(4-((5-fluoro-4-(3-(3-oxomorpholino)phenyl)pyrimidin-2-yl)amino)piperidine-1-carbonyl)cyclohexyl)methyl)piperidin-4-yl)phenyl)amino)piperidine-2,6-dione]"
4,< 500,"Cn1nc([C@H]2CCC(=O)NC2=O)c2ccc(C3CCN(CC4CCN(C(=O)O[C@H]5CC[C@H](Nc6ncc(F)c(-c7cccc(-n8ccccc8=O)c7)n6)CC5)CC4)CC3)cc21 (single isomer, unassigned) [Compound 639]"
5,< 500,"O=C1CCC(Nc2ccc(N3CCN(C4CCN(C(=O)O[C@H]5CC[C@H](Nc6ncc(F)c(-c7cccc(N8CCCCC8)c7)n6)CC5)CC4)CC3)c(F)c2)C(=O)N1 (stereo partly drawn) [Compound 687, trans-4-((5-fluoro-4-(3-(piperidin-1-yl)phenyl)pyrimidin-2-yl)amino)cyclohexyl 4-(4-(4-((2,6-dioxopiperidin-3-yl)amino)-2-fluorophenyl)piperazin-1-yl)piperidine-1-carboxylate]"
6,< 500,"O=C1CCC(Nc2ccc(C3CCN(CC4(O)CCN(C(=O)[C@H]5CC[C@H](Nc6ncc(F)c(-c7cccc(N8CCCOC8=O)c7)n6)CC5)CC4)CC3)c(F)c2)C(=O)N1 (stereo partly drawn) [Compound 580, trans-3-((3-fluoro-4-(1-((1-(4-((5-fluoro-4-(3-(2-oxo-1,3-oxazinan-3-yl)phenyl)pyrimidin-2-yl)amino)cyclohexane-1-carbonyl)-4-hydroxypiperidin-4-yl)methyl)piperidin-4-yl)phenyl)amino)piperidine-2,6-dione]"
7,< 500,"O=C1CCC(Nc2ccc(N3CCC(N4CCC(C(=O)N[C@H]5CC[C@H](Nc6ncc(F)c(-c7cccc(-c8ccccc8)c7)n6)CC5)CC4)C(F)C3)c(F)c2)C(=O)N1 (stereo partly drawn) [Compound 656, N-((1r,4r)-4-((4-([1,1′-biphenyl]-3-yl)-5-fluoropyrimidin-2-yl)amino)cyclohexyl)-1′-(4-((2,6-dioxopiperidin-3-yl)amino)-2-fluorophenyl)-3′-fluoro-[1,4′-bipiperidine]-4-carboxamide]"
8,< 500,"Cc1ccn(-c2cccc(-c3nc(N[C@H]4CC[C@H](C(=O)N5CCC(CN6CCC(c7ccc(NC8CCC(=O)NC8=O)cc7F)CC6)CC5)CC4)ncc3F)c2)c(=O)c1 (stereo partly drawn) [Compound 473, trans-3-((3-fluoro-4-(1-((1-(4-((5-fluoro-4-(3-(4-methyl-2-oxopyridin-1 (2H)-yl)phenyl)pyrimidin-2-yl)amino)cyclohexane-1-carbonyl)piperidin-4-yl)methyl)piperidin-4-yl)phenyl)amino)piperidine-2,6-dione]"
9,< 500,"O=C1CCC(Nc2ccc(C3CCN(CC4CCN(C(=O)[C@H]5CC[C@H](Nc6ncc(F)c(-c7cccc(-n8ccccc8=O)c7)n6)CC5)CC4)CC3(F)F)c(F)c2)C(=O)N1 (stereo partly drawn) [Compound 390, trans-3-[4-[3,3-difluoro-1-[[1-[4-[[5-fluoro-4-[3-(2-oxo-1-pyridyl)phenyl]pyrimidin-2-yl]amino]cyclohexanecarbonyl]-4-piperidyl]methyl]-4-piperidyl]-3-fluoro-anilino]piperidine-2,6-dione]"
10,< 500,"O=C1CC[C@H](Nc2ccc(N3CCN([C@H]4CC[C@H](C(=O)N[C@H]5CC[C@H](Nc6ncc(F)c(-c7cccc(N8CCCOC8=O)c7)n6)CC5)CC4)CC3)c(F)c2)C(=O)N1 (single isomer, unassigned) [Compound 462]"
11,< 500,"O=C1CCC(Nc2ccc(N3CCN(CC4(O)CCN(C(=O)[C@H]5CC[C@H](Nc6ncc(F)c(-c7cccc(-n8ccccc8=O)c7)n6)CC5)CC4)CC3)c(F)c2)C(=O)N1 (stereo partly drawn) [Compound 392, trans-3-((3-fluoro-4-(4-((1-(4-((5-fluoro-4-(3-(2-oxopyridin-1(2H)-yl)phenyl)pyrimidin-2-yl)amino)cyclohexane-1-carbonyl)-4-hydroxypiperidin-4-yl)methyl)piperazin-1-yl)phenyl)amino)piperidine-2,6-dione]"
12,< 500,"O=C1CCC(Nc2ccc(N3CCC(N4CCC(C(=O)N[C@H]5CC[C@H](Nc6ncc(F)c(-c7cccc(-n8ccccc8=O)c7)n6)CC5)CC4)C(F)C3)c(F)c2)C(=O)N1 (stereo partly drawn) [Compound 405, 1′-(4-((2,6-dioxopiperidin-3-yl)amino)-2-fluorophenyl)-3′-fluoro-N-((1r,4r)-4-((5-fluoro-4-(3-(2-oxopyridin-1(2H)-yl)phenyl)pyrimidin-2-yl)amino)cyclohexyl)-[1,4′-bipiperidine]-4-carboxamide]"

# Same assay, conditions: 24 hours incubation, MOLT-4, top concentration 10 micromolar; read-out: HiBIT-degradation MOLT4 PIP4k2C 24 hours DC50
row,DC50 [nM],Structure (SMILES)
1,< 500,"Cn1nc(C2CCC(=O)NC2=O)c2ccc(C3CCN(CCC4CCN(C(=O)[C@@H]5CCC[C@H](Nc6ncc(F)c(-c7cccc(-n8ccccc8=O)c7)n6)C5)CC4)CC3)cc21 (stereo partly drawn) [Compound 351, 3-(6-(1-(2-(1-((1R,3S)-3-((5-fluoro-4-(3-(2-oxopyridin-1(2H)-yl)phenyl)pyrimidin-2-yl)amino)cyclohexane-1-carbonyl)piperidin-4-yl)ethyl)piperidin-4-yl)-1-methyl-1H-indazol-3-yl)piperidine-2,6-dione]"
2,< 500,"O=C1CCC(Nc2ccc(N3CCC(CCN4CCC(C(=O)N[C@H]5CC[C@H](Nc6ncc(F)c(-c7cccc(-n8ccccc8=O)c7)n6)CC5)CC4)CC3)c(F)c2)C(=O)N1 (stereo partly drawn) [Compound 316, trans-1-[2-[1-[4-[(2,6-dioxo-3-piperidyl)amino]-2-fluoro-phenyl]-4-piperidyl]ethyl]-N-[4-[[5-fluoro-4-[3-(2-oxo-1-pyridyl)phenyl]pyrimidin-2-yl]amino]cyclohexyl]piperidine-4-carboxamide]"
3,< 500,"O=C1CCC(N2Cc3cc(OC4CCN(CCC5CCN(C(=O)[C@H]6CCC[C@@H](Nc7ncc(Cl)c(-c8cccc(-c9ccccc9)c8)n7)C6)CC5)CC4)ccc3C2=O)C(=O)N1 (relative stereo) [Compound 79, cis-3-(5-((1-(2-(1-(3-((4-([1,1′-biphenyl]-3-yl)-5-chloropyrimidin-2-yl)amino)cyclohexane-1-carbonyl)piperidin-4-yl)ethyl)piperidin-4-yl)oxy)-1-oxoisoindolin-2-yl)piperidine-2,6-dione]"
4,500 to 1000,"O=C1CCC(n2c(=O)oc3cc(C4CCN(CCC5CCN(C(=O)[C@@H]6CCC[C@H](Nc7ncc(F)c(-c8cccc(N9CCCOC9=O)c8)n7)C6)CC5)CC4)ccc32)C(=O)N1 (stereo partly drawn) [Compound 355, 3-(6-(1-(2-(1-((1R,3S)-3-((5-fluoro-4-(3-(2-oxo-1,3-oxazinan-3-yl)phenyl)pyrimidin-2-yl)amino)cyclohexane-1-carbonyl)piperidin-4-yl)ethyl)piperidin-4-yl)-2-oxobenzo[d]oxazol-3 (2H)-yl)piperidine-2,6-dione]"
5,< 500,"Cn1c(=O)n(C2CCC(=O)NC2=O)c2ccc(C3CCN(CC4CCN(CC(=O)N5CCC(Nc6ncc(F)c(-c7cccc(-c8ccccc8)c7)n6)CC5)CC4)CC3)cc21 (stereo not drawn) [Compound 286, 3-(5-(1-((1-(2-(4-((4-([1,1′-biphenyl]-3-yl)-5-fluoropyrimidin-2-yl)amino)piperidin-1-yl)-2-oxoethyl)piperidin-4-yl)methyl)piperidin-4-yl)-3-methyl-2-oxo-2,3-dihydro-1H-benzo[d]imidazol-1-yl)piperidine-2,6-dione]"
6,< 500,"O=C1CCC(n2c(=O)oc3cc(N4CCC(CCN5CCC(C(=O)N6CCC(Nc7ncc(F)c(-c8cccc(-n9ccccc9=O)c8)n7)CC6)CC5)CC4)ccc32)C(=O)N1 (stereo not drawn) [Compound 330, 3-[6-[4-[2-[4-[4-[[5-fluoro-4-[3-(2-oxo-1-pyridyl)phenyl]pyrimidin-2-yl]amino]piperidine-1-carbonyl]-1-piperidyl]ethyl]-1-piperidyl]-2-oxo-1,3-benzoxazol-3-yl]piperidine-2,6-dione]"

# Source: patent US20260355196A1, “INHIBITORS AND DEGRADERS OF PIP4K PROTEIN” (Larkspur Biosciences, Inc., priority 2023, published 2026)
